pKi: −log10 of the molar value.
target: Furin (Homo sapiens, UniProt P09958)
Sequence (P09958 whole entry): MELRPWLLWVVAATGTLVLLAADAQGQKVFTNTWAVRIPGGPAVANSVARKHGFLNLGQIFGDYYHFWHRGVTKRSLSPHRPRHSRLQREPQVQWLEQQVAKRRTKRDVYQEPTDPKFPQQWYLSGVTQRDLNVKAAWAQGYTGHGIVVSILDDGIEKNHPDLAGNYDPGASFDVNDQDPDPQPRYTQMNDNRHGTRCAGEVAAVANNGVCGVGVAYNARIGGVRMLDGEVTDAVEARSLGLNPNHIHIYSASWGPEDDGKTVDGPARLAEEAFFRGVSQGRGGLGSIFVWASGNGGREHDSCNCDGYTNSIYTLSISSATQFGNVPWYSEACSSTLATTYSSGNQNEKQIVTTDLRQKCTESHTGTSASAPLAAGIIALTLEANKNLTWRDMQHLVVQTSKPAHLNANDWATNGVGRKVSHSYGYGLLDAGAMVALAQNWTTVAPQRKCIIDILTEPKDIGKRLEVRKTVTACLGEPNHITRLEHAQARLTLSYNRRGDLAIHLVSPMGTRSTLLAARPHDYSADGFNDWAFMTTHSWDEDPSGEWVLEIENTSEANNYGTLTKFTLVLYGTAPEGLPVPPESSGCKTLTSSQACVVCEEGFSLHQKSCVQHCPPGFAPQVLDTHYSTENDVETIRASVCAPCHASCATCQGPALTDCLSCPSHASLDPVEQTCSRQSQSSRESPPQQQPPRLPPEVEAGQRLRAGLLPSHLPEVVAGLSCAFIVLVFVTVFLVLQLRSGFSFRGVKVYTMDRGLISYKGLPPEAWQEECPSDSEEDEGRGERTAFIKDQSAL

Point of comparison: `C[C@H](NC(=O)[C@H](CCCN=C(N)N)NC(=O)[C@@H]1CCCN1C(=O)[C@@H](N)[C@@H](C)O)C(=O)N[C@@H](CCCN=C(N)N)C(=O)N[C@@H](CCCN=C(N)N)C(=O)N[C@@H](CCCN=C(N)N)C(=O)N[C@@H](CCCCN)C(=O)N[C@@H](CCCCN)C(=O)N[C@@H](CCCN=C(N)N)C(=O)O`, pKi 6.86. Against it:
- CC[C@H](NC(=O)[C@H](CCCNC(=N)N)NC(=O)[C@H](CCC(N)=O)NC(=O)[C@@H]1CCCN1C(=O)[C@@H](N)[C@@H](C)O)C(=O)N[C@@H](CCCNC(=N)N)C(=O)N[C@@H](CCCNC(=N)N)C(=O)N[C@@H](CCCNC(=N)N)C(=O)N[C@@H](CCCCN)C(=O)N[C@@H](CCCCN)C(=O)N[C@@H](CCCNC(=N)N)C(=O)NCC(=O)O — not separable, < 7.00
- C[C@H](NC(=O)[C@H](CCCNC(=N)N)NC(=O)[C@H](CCC(N)=O)NC(=O)[C@@H]1CCCN1C(=O)[C@@H](N)[C@@H](C)O)C(=O)N[C@@H](CCCNC(=N)N)C(=O)N[C@@H](CCCNC(=N)N)C(=O)N[C@@H](CCCNC(=N)N)C(=O)N[C@@H](CCCCN)C(=O)N[C@@H](CCCCN)C(=O)N[C@@H](CCCNC(=N)N)C(=O)N[C@H](CCCNC(=N)N)C(=O)O — not separable, < 7.00
- C[C@@H](O)[C@H](N)C(=O)N1CCC[C@H]1C(=O)N[C@@H](CCCN=C(N)N)C(=O)N[C@@H](CCC(=O)O)C(=O)N[C@@H](CCCN=C(N)N)C(=O)N[C@@H](CCCN=C(N)N)C(=O)N[C@@H](CCCN=C(N)N)C(=O)N[C@@H](CCCCN)C(=O)N[C@@H](CCCCN)C(=O)N[C@@H](CCCNC(=N)N)C(=O)NCC(N)=O — not separable, < 7.00
- C[C@H](NC(=O)[C@H](CCCN=C(N)N)NC(=O)[C@H](CCC(N)=O)NC(=O)[C@@H]1CCCN1C(=O)[C@@H](N)[C@@H](C)O)C(=O)N[C@@H](CCCN=C(N)N)C(=O)N[C@@H](CCCN=C(N)N)C(=O)N[C@@H](CCCN=C(N)N)C(=O)N[C@@H](CCCCN)C(=O)N[C@@H](CCCCN)C(=O)N[C@@H](CCCN=C(N)N)C(=O)NCC(=O)O — not separable, < 7.00
- CSCC[C@H](NC(=O)[C@H](CCCN=C(N)N)NC(=O)[C@H](CCCCN)NC(=O)[C@H](CCCCN)NC(=O)[C@H](CCCN=C(N)N)NC(=O)[C@H](CCCN=C(N)N)NC(=O)[C@H](CCCN=C(N)N)NC(=O)[C@H](C)NC(=O)[C@H](CCCN=C(N)N)NC(=O)[C@@H]1CCCN1C(=O)[C@@H](N)[C@@H](C)O)C(N)=O — not separable, < 7.00
- C[C@H](NC(=O)[C@H](CCCN=C(N)N)NC(=O)[C@@H]1CCCN1C(=O)[C@@H](N)[C@@H](C)O)C(=O)N[C@@H](CCCN=C(N)N)C(=O)N[C@@H](CCCN=C(N)N)C(=O)N[C@@H](CCCN=C(N)N)C(=O)N[C@@H](CCCCN)C(=O)N[C@@H](CCCCN)C(=O)N[C@@H](CCCN=C(N)N)C(=O)N(C)CC(=O)O — not separable, < 7.00
- C[C@@H](O)[C@H](N)C(=O)N1CCC[C@H]1C(=O)N[C@@H](CCCN=C(N)N)C(=O)N[C@@H](CCCCN)C(=O)N[C@@H](CCCN=C(N)N)C(=O)N[C@@H](CCCN=C(N)N)C(=O)N[C@@H](CCCN=C(N)N)C(=O)N[C@@H](CCCCN)C(=O)N[C@@H](CCCCN)C(=O)N[C@@H](CCCN=C(N)N)C(=O)NCC(N)=O — not separable, < 7.00
- CC(C)C[C@H](NC(=O)[C@H](CCCNC(=N)N)NC(=O)[C@H](CCCCN)NC(=O)[C@H](CCCCN)NC(=O)[C@H](CCCNC(=N)N)NC(=O)[C@H](CCCNC(=N)N)NC(=O)[C@H](CCCNC(=N)N)NC(=O)[C@H](C)NC(=O)[C@H](CCCNC(=N)N)NC(=O)[C@@H]1CCCN1C(=O)[C@@H](N)[C@@H](C)O)C(N)=O — not separable, < 7.00
- C[C@@H](N)C(=O)N1CCC[C@H]1C(=O)N[C@@H](CCCNC(=N)N)C(=O)N[C@@H](CCC(=O)O)C(=O)N[C@@H](CCCNC(=N)N)C(=O)N[C@@H](CCCNC(=N)N)C(=O)N[C@@H](CCCNC(=N)N)C(=O)N[C@@H](CCCCN)C(=O)N[C@@H](CCCCN)C(=O)N[C@@H](CCCNC(=N)N)C(=O)NCC(N)=O — not separable, < 7.00
- C[C@H](NC(=O)[C@H](CCCNC(=N)N)NC(=O)[C@H](CCC(N)=O)NC(=O)[C@@H]1CCCN1C(=O)[C@@H](N)[C@@H](C)O)C(=O)N[C@@H](CCCNC(=N)N)C(=O)N[C@@H](CCCNC(=N)N)C(=O)N[C@@H](CCCNC(=N)N)C(=O)N[C@@H](CCCCN)C(=O)N[C@@H](CCCCN)C(=O)N[C@@H](CCCNC(=N)N)C(=O)N[C@@H](CCCCN)C(=O)O — not separable, < 7.00
- C[C@H](NC(=O)[C@H](CCCNC(=N)N)NC(=O)[C@@H]1CCCN1C(=O)[C@@H](N)[C@@H](C)O)C(=O)N[C@@H](CCCNC(=N)N)C(=O)N[C@@H](CCCNC(=N)N)C(=O)N[C@@H](CCCNC(=N)N)C(=O)N[C@@H](CCCCN)C(=O)N[C@@H](CCCCN)C(=O)N[C@@H](CCCNC(=N)N)C(=O)N[C@@H](CS)C(N)=O — not separable, < 7.00
- C[C@H](NC(=O)[C@H](C)NC(=O)[C@H](CCCN=C(N)N)NC(=O)[C@H](CCCN=C(N)N)NC(=O)[C@H](CCCN=C(N)N)NC(=O)[C@H](CCC(=O)O)NC(=O)[C@H](CCCN=C(N)N)NC(=O)[C@@H]1CCCN1C(=O)[C@@H](N)[C@@H](C)O)C(=O)N[C@@H](CCCN=C(N)N)C(=O)O — not separable, < 7.00
- C[C@@H](O)[C@H](N)C(=O)N1CCC[C@H]1C(=O)N[C@@H](CCCNC(=N)N)C(=O)N[C@@H](CCCNC(N)=O)C(=O)N[C@@H](CCCNC(=N)N)C(=O)N[C@@H](CCCNC(=N)N)C(=O)N[C@@H](CCCNC(=N)N)C(=O)N[C@@H](CCCCN)C(=O)N[C@@H](CCCCN)C(=O)N[C@@H](CCCNC(=N)N)C(=O)NCC(N)=O — not separable, < 7.00
- C[C@@H](O)[C@H](N)C(=O)N1CCC[C@H]1C(=O)N[C@@H](CCC(N)=O)C(=O)N[C@@H](CCCN=C(N)N)C(=O)N[C@@H](CC1CCCCC1)C(=O)N[C@@H](CCCN=C(N)N)C(=O)N[C@@H](CCCN=C(N)N)C(=O)N[C@@H](CCCN=C(N)N)C(=O)N[C@@H](CCCCN)C(=O)N[C@@H](CCCCN)C(=O)N[C@@H](CCCNC(=N)N)C(=O)NCC(=O)O — not separable, < 7.00
- C[C@@H](O)[C@H](N)C(=O)N1CCC[C@H]1C(=O)N[C@@H](CCCN=C(N)N)C(=O)N[C@H](CCCCN)C(=O)N[C@@H](CCCN=C(N)N)C(=O)N[C@@H](CCCN=C(N)N)C(=O)N[C@@H](CCCN=C(N)N)C(=O)N[C@@H](CCCCN)C(=O)N[C@@H](CCCCN)C(=O)N[C@@H](CCCN=C(N)N)C(=O)NCC(N)=O — not separable, < 7.00
- C[C@@H](O)[C@H](N)C(=O)N1CCC[C@H]1C(=O)N[C@@H](CCCNC(=N)N)C(=O)NCCC(=O)N[C@@H](CCCNC(=N)N)C(=O)N[C@@H](CCCNC(=N)N)C(=O)N[C@@H](CCCNC(=N)N)C(=O)N[C@@H](CCCCN)C(=O)N[C@@H](CCCCN)C(=O)N[C@@H](CCCNC(=N)N)C(=O)NCC(N)=O — not separable, < 7.00
- C[C@@H](O)[C@H](N)C(=O)N1CCC[C@H]1C(=O)N[C@@H](CCCN=C(N)N)C(=O)NC1(C(=O)N[C@@H](CCCN=C(N)N)C(=O)N[C@@H](CCCN=C(N)N)C(=O)N[C@@H](CCCN=C(N)N)C(=O)N[C@@H](CCCCN)C(=O)N[C@@H](CCCCN)C(=O)N[C@@H](CCCN=C(N)N)C(=O)NCC(N)=O)CCCC1 — not separable, < 7.00
- C[C@@H](O)[C@H](N)C(=O)N1CCC[C@H]1C(=O)N[C@@H](CCC(N)=O)C(=O)N[C@@H](CCCNC(=N)N)C(=O)NC1(C(=O)N[C@@H](CCCNC(=N)N)C(=O)N[C@@H](CCCNC(=N)N)C(=O)N[C@@H](CCCNC(=N)N)C(=O)N[C@@H](CCCCN)C(=O)N[C@@H](CCCCN)C(=O)NC2(C(=O)NCC(=O)O)CCCC2)CCCC1 — not separable, < 7.00
- C[C@H](O)[C@H](N)C(=O)N1CCC[C@H]1C(=O)N[C@@H](CCCNC(=N)N)C(=O)N[C@H](CCC(=O)O)C(=O)N[C@@H](CCCNC(=N)N)C(=O)N[C@@H](CCCNC(=N)N)C(=O)N[C@@H](CCCNC(=N)N)C(=O)N[C@@H](CCCCN)C(=O)N[C@@H](CCCCN)C(=O)N[C@@H](CCCNC(=N)N)C(=O)NCC(N)=O — not separable, < 7.00
- C[C@H](NC(=O)[C@H](CCCNC(=N)N)NC(=O)[C@H](CCC(N)=O)NC(=O)[C@@H]1CCCN1C(=O)[C@@H](N)[C@@H](C)O)C(=O)N[C@@H](CCCNC(=N)N)C(=O)N[C@@H](CCCNC(=N)N)C(=O)N[C@@H](CCCNC(=N)N)C(=O)N[C@@H](CCCCN)C(=O)N[C@@H](CCCCN)C(=O)N[C@@H](CCCNC(=N)N)C(=O)N[C@H](CCCCN)C(=O)O — not separable, < 7.00
- C[C@@H](O)[C@H](N)C(=O)N1CCC[C@H]1C(=O)N[C@@H](CCCNC(=N)N)C(=O)NCCCCCC(=O)N[C@@H](CCCNC(=N)N)C(=O)N[C@@H](CCCNC(=N)N)C(=O)N[C@@H](CCCNC(=N)N)C(=O)N[C@@H](CCCCN)C(=O)N[C@@H](CCCCN)C(=O)N[C@@H](CCCNC(=N)N)C(=O)NCC(N)=O — not separable, < 7.00
- C[C@H](NC(=O)[C@H](CCCN=C(N)N)NC(=O)[C@H](CCC(N)=O)NC(=O)[C@@H]1CCCN1C(=O)[C@@H](N)[C@@H](C)O)C(=O)N[C@@H](CCCN=C(N)N)C(=O)N[C@@H](CCCN=C(N)N)C(=O)N[C@@H](CCCN=C(N)N)C(=O)N[C@@H](CCCCN)C(=O)N[C@@H](CCCCN)C(=O)N[C@@H](CCCN=C(N)N)C(=O)N[C@@H](CCCN=C(N)N)C(=O)O — not separable, < 7.00
- CSC[C@H](NC(=O)[C@H](CCCNC(=N)N)NC(=O)[C@H](CCC(N)=O)NC(=O)[C@@H]1CCCN1C(=O)[C@@H](N)[C@@H](C)O)C(=O)N[C@@H](CCCNC(=N)N)C(=O)N[C@@H](CCCNC(=N)N)C(=O)N[C@@H](CCCNC(=N)N)C(=O)N[C@@H](CCCCN)C(=O)N[C@@H](CCCCN)C(=O)N[C@@H](CCCNC(=N)N)C(=O)NCC(=O)O — not separable, < 7.00
- CCCC[C@H](NC(=O)[C@H](CCCNC(=N)N)NC(=O)[C@H](CCC(N)=O)NC(=O)[C@@H]1CCCN1C(=O)[C@@H](N)[C@@H](C)O)C(=O)N[C@@H](CCCNC(=N)N)C(=O)N[C@@H](CCCNC(=N)N)C(=O)N[C@@H](CCCNC(=N)N)C(=O)N[C@@H](CCCCN)C(=O)N[C@@H](CCCCN)C(=O)N[C@@H](CCCNC(=N)N)C(=O)NCC(=O)O — not separable, < 7.00
- C[C@H](NC(=O)[C@H](C)NC(=O)[C@H](CCCN=C(N)N)NC(=O)[C@H](CCCN=C(N)N)NC(=O)[C@H](CCCN=C(N)N)NC(=O)[C@H](CCC(=O)O)NC(=O)[C@H](CCCN=C(N)N)NC(=O)[C@@H]1CCCN1C(=O)[C@@H](N)[C@@H](C)O)C(=O)N[C@@H](CCCN=C(N)N)C(=O)N(C)CC(=O)O — not separable, < 7.00
- C[C@H](NC(=O)[C@H](C)NC(=O)[C@H](CCCNC(=N)N)NC(=O)[C@H](CCCNC(=N)N)NC(=O)[C@H](CCCNC(=N)N)NC(=O)[C@H](CCC(=O)O)NC(=O)[C@H](CCCNC(=N)N)NC(=O)[C@@H]1CCCN1C(=O)[C@@H](N)[C@@H](C)O)C(=O)N[C@@H](CCCNC(=N)N)C(=O)NCC(=O)O — not separable, < 7.00

Source: ChEMBL document CHEMBL1156471, “Targeting host cell furin proprotein convertases as a therapeutic strategy against bacterial toxins and viral pathogens” (J Biol Chem, 2007)
